# How the values were obtained:
# Assay in all cases: KINOMEscan kinase binding assay (Eurofins/DiscoveRx), % Ctrl
# kinases [1] = target: T1, kinases (Homo sapiens, UniProt P10721, V559D); settings: 1 μM; KIT(V559D)
# T1 construct: purchased Eurofins/DiscoveRx; host or cells: E. coli BL21-derived host (T7 phage display) for most kinases; HEK-293 for the rest
# Summary of the method: (§1)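 Competition binding: DNA- or phage-tagged kinases (T7 phage in E. coli BL21, or HEK-293-expressed) with immobilized biotinylated ligand beads and test compound, 1 h at room temperature. Bead-bound kinase eluted and quantified by qPCR; % Ctrl = (compound − positive control)/(negative control − positive control) ×100 at a single compound concentration.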
# kinases [2] = target: T2, kinases (Homo sapiens, UniProt P00519, Q252H); settings: 1 μM
# T2 construct: purchased Eurofins/DiscoveRx; host or cells: E. coli BL21-derived host (T7 phage display) for most kinases; HEK-293 for the rest
# Summary of the method: as §1
# kinases [3] = target: T3, kinases (Homo sapiens, UniProt P00519); settings: 1 μM
# T3 construct: purchased Eurofins/DiscoveRx; host or cells: E. coli BL21-derived host (T7 phage display) for most kinases; HEK-293 for the rest
# Summary of the method: as §1
# kinases [4] = target: T4, kinases (Homo sapiens, UniProt P36888); settings: 1 μM
# T4 construct: purchased Eurofins/DiscoveRx; host or cells: E. coli BL21-derived host (T7 phage display) for most kinases; HEK-293 for the rest
# T4 sequence (P36888 27-993): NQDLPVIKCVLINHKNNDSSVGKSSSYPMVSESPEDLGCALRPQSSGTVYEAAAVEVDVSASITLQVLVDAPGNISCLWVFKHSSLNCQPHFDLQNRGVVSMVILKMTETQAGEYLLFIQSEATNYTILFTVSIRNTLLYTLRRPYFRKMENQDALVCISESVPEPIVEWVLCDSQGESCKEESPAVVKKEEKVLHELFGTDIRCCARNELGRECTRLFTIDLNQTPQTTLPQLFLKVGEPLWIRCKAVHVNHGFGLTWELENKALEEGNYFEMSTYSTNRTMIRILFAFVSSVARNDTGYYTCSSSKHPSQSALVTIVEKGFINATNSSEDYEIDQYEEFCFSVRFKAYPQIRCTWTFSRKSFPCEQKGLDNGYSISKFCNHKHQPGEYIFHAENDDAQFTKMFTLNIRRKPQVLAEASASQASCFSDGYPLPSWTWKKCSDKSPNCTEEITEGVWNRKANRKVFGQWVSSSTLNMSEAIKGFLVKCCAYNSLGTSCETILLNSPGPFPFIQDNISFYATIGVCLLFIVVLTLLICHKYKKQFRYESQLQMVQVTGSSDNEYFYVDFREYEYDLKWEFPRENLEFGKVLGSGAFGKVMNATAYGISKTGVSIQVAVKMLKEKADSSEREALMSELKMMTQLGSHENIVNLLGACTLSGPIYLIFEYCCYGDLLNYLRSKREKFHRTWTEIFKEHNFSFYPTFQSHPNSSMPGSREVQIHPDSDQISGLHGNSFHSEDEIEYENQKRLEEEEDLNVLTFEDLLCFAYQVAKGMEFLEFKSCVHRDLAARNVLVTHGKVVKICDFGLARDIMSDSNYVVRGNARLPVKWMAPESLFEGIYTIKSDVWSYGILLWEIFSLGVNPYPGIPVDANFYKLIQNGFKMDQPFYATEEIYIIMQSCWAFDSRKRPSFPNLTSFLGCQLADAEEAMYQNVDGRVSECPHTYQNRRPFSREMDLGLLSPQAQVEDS
# Summary of the method: as §1
# kinases [5] = target: T5, kinases (Homo sapiens, UniProt P00533, DEL752-759); settings: 1 μM; EGFR(S752-I759del)
# T5 construct: purchased Eurofins/DiscoveRx; host or cells: E. coli BL21-derived host (T7 phage display) for most kinases; HEK-293 for the rest
# Summary of the method: as §1
# kinases [6] = target: T6, kinases (Homo sapiens, UniProt P16234); settings: 1 μM; PDGFRA
# T6 construct: purchased Eurofins/DiscoveRx; host or cells: E. coli BL21-derived host (T7 phage display) for most kinases; HEK-293 for the rest
# Summary of the method: as §1
# kinases [7] = target: T7, kinases (Homo sapiens, UniProt P07949); settings: 1 μM; RET
# T7 construct: purchased Eurofins/DiscoveRx; host or cells: E. coli BL21-derived host (T7 phage display) for most kinases; HEK-293 for the rest
# Summary of the method: as §1
# kinases [8] = target: T8, kinases (Homo sapiens, UniProt P00519, E255K); settings: 1 μM; ABL1(E255K)-phosphorylated
# T8 construct: purchased Eurofins/DiscoveRx; host or cells: E. coli BL21-derived host (T7 phage display) for most kinases; HEK-293 for the rest
# Summary of the method: as §1
# kinases [9] = target: T9, kinases (Homo sapiens, UniProt P07949, M918T); settings: 1 μM; RET(M918T)
# T9 construct: purchased Eurofins/DiscoveRx; host or cells: E. coli BL21-derived host (T7 phage display) for most kinases; HEK-293 for the rest
# Summary of the method: as §1
# kinases [10] = target: T10, kinases (Homo sapiens, UniProt P10721, D816H); settings: 1 μM; KIT(D816H)
# T10 construct: purchased Eurofins/DiscoveRx; host or cells: E. coli BL21-derived host (T7 phage display) for most kinases; HEK-293 for the rest
# Summary of the method: as §1
# kinases [11] = target: T11, kinases (Homo sapiens, UniProt P42684); settings: 1 μM; ABL2
# T11 construct: purchased Eurofins/DiscoveRx; host or cells: E. coli BL21-derived host (T7 phage display) for most kinases; HEK-293 for the rest
# Summary of the method: as §1
# kinases [12] = target: T12, kinases (Homo sapiens, UniProt P00519, T315I); settings: 1 μM
# T12 construct: purchased Eurofins/DiscoveRx; host or cells: E. coli BL21-derived host (T7 phage display) for most kinases; HEK-293 for the rest
# Summary of the method: as §1
# kinases [13] = target: T13, kinases (Homo sapiens, UniProt P00533, L861Q); settings: 1 μM; EGFR(L861Q)
# T13 construct: purchased Eurofins/DiscoveRx; host or cells: E. coli BL21-derived host (T7 phage display) for most kinases; HEK-293 for the rest
# Summary of the method: as §1
# T7 sequence (P07949 29-1114): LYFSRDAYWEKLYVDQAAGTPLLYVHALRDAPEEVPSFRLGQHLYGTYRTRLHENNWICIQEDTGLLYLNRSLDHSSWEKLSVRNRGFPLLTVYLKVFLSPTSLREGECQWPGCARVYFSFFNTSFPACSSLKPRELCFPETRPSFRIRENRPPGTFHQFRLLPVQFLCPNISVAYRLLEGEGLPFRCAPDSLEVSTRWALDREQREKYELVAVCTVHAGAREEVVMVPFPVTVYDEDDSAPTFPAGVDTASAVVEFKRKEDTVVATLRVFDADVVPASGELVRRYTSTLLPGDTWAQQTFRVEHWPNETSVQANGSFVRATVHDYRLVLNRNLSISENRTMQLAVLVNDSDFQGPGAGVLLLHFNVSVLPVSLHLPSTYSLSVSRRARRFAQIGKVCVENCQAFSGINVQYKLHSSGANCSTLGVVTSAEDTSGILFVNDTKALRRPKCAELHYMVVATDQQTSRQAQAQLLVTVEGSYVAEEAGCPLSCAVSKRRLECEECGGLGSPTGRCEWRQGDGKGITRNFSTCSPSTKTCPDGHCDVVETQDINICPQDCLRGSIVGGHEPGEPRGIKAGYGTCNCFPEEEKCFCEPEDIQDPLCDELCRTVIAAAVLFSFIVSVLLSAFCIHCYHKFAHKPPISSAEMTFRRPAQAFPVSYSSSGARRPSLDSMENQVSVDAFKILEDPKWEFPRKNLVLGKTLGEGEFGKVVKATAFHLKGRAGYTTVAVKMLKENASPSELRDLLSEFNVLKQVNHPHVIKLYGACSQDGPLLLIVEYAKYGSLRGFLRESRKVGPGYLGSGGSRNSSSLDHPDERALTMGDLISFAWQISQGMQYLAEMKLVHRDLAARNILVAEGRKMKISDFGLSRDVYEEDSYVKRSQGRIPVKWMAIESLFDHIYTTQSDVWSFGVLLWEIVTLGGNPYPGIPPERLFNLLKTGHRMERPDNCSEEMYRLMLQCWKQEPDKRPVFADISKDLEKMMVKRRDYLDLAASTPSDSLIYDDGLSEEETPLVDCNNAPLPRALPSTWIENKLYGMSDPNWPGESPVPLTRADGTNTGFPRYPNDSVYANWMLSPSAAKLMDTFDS
# T1 sequence (P10721 26-976 V559D): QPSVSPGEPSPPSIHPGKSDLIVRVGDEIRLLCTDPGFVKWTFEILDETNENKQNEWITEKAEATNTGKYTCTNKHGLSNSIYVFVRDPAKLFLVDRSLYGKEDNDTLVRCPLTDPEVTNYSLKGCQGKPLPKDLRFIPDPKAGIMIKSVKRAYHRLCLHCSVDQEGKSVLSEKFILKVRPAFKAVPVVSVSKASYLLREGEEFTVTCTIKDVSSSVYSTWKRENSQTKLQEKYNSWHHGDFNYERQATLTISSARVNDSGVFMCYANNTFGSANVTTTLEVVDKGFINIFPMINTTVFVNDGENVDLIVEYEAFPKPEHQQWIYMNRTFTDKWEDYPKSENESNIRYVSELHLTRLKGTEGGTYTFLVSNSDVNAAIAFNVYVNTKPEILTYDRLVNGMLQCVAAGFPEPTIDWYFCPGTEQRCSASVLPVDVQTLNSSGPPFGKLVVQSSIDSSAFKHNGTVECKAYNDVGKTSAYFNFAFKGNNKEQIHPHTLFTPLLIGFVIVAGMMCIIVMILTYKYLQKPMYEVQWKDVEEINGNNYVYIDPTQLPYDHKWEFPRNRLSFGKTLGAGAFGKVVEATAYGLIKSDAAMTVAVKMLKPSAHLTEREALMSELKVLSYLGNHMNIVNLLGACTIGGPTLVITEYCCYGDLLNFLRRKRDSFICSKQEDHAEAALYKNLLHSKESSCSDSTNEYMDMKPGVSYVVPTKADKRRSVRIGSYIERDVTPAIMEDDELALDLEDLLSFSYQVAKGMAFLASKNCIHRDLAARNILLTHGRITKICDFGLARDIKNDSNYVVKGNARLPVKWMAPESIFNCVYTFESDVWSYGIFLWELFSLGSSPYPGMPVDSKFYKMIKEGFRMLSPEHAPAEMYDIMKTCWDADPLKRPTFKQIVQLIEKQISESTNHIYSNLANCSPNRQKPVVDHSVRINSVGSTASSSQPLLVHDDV
# T6 sequence (P16234 24-1089): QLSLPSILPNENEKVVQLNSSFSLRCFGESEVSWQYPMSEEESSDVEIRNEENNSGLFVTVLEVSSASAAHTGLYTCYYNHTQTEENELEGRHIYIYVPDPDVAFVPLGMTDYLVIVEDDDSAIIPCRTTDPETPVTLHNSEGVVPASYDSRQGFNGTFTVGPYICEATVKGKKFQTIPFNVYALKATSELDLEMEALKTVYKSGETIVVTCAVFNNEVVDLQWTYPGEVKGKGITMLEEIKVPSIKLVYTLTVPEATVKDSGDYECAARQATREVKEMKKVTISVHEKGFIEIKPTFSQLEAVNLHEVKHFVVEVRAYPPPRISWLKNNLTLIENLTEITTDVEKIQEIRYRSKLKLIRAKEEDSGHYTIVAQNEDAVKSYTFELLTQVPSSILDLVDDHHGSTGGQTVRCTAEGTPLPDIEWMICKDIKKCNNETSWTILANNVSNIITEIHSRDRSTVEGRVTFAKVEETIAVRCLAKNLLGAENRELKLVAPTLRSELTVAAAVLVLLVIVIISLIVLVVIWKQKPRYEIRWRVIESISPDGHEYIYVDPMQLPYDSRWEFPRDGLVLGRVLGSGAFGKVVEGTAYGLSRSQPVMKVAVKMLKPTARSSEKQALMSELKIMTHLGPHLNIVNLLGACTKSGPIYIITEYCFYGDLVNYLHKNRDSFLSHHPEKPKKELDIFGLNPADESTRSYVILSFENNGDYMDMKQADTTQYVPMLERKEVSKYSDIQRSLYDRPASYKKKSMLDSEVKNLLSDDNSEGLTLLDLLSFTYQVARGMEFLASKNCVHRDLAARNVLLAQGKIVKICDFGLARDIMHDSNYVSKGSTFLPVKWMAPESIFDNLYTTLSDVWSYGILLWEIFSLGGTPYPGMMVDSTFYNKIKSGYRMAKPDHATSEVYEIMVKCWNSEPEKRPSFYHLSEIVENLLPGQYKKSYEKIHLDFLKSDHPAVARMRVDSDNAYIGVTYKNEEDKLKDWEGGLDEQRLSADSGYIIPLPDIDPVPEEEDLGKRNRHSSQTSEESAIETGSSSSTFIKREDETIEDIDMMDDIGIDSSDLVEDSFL
# T10 sequence (P10721 26-976 D816H): as the sequence (P10721 26-976 V559D) above, with D534V, D791H counted along it
# T9 sequence (P07949 29-1114 M918T): as the sequence (P07949 29-1114) above, with M890T counted along it
# T11 sequence (P42684 whole entry): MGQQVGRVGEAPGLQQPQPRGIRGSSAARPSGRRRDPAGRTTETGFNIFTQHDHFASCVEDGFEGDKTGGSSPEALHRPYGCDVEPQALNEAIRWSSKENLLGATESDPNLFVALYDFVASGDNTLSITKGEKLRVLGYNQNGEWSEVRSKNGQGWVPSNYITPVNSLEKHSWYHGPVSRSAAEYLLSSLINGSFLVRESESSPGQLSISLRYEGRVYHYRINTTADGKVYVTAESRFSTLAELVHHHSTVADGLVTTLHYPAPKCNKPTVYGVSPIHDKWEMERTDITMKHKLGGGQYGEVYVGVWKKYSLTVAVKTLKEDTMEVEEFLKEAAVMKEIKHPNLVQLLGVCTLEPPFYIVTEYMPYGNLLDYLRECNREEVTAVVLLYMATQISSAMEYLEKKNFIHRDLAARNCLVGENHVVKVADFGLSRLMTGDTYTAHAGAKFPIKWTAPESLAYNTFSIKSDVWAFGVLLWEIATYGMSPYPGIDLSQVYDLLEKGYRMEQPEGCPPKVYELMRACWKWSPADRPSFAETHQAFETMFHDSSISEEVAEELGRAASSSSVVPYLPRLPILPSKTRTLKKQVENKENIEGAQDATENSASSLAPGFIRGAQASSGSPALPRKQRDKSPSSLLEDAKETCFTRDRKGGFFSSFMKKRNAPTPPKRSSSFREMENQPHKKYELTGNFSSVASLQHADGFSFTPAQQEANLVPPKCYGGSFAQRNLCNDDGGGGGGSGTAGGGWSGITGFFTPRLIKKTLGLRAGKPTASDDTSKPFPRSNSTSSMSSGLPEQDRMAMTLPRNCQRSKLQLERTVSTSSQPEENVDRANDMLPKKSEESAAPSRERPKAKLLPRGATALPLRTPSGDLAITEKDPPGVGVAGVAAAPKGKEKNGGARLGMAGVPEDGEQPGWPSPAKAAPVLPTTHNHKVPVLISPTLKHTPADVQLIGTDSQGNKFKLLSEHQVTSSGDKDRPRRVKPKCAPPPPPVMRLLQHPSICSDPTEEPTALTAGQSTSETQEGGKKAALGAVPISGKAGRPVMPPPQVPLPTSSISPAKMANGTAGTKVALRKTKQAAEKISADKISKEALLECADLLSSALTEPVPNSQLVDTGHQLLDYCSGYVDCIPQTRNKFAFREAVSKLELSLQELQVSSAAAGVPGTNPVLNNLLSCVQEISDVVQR
Compound,"% Ctrl, KIT(V559D) (kinases [1]) [% Ctrl]","% Ctrl, ABL1(Q252H)-nonphosphorylated (kinases [2]) [% Ctrl]","% Ctrl, ABL1(Q252H)-phosphorylated (kinases [2]) [% Ctrl]","% Ctrl, ABL1-nonphosphorylated (kinases [3]) [% Ctrl]","% Ctrl, ABL1-phosphorylated (kinases [3]) [% Ctrl]","% Ctrl, FLT3 (kinases [4]) [% Ctrl]","% Ctrl, FLT3-autoinhibited (kinases [4]) [% Ctrl]","% Ctrl, EGFR(S752-I759del) (kinases [5]) [% Ctrl]","% Ctrl, PDGFRA (kinases [6]) [% Ctrl]","% Ctrl, RET (kinases [7]) [% Ctrl]","% Ctrl, ABL1(E255K)-phosphorylated (kinases [8]) [% Ctrl]","% Ctrl, RET(M918T) (kinases [9]) [% Ctrl]","% Ctrl, KIT(D816H) (kinases [10]) [% Ctrl]","% Ctrl, ABL2 (kinases [11]) [% Ctrl]","% Ctrl, ABL1(T315I)-nonphosphorylated (kinases [12]) [% Ctrl]","% Ctrl, ABL1(T315I)-phosphorylated (kinases [12]) [% Ctrl]","% Ctrl, EGFR(L861Q) (kinases [13]) [% Ctrl]"
"Cc1cc2c([nH]1)/C=C1\C(=O)Nc3ccc(cc31)-c1c(C)n[nH]c1CNCCN(C)C2=O [Ex. 127, [3a(4)Z]-6,9,16-trimethyl-9,10,11,12,13,14-hexahydro-1,17-(ethanediylidene)pyrazolo[4,3-m]dipyrrolo[3,2-f:3′,4′-i][1,4]diazacyclopentadecine-3,8(2H,5H)-dione]",82,0,0.05,0.05,0,4.6,9.9,57,47,2,0.1,2.1,60,6.9,0,0.65,73
"Cc1cc2c([nH]1)/C=C1\C(=O)Nc3ccc(cc31)-c1c(noc1C)COCCN(C)C2=O [Ex. 128, [3a(4)Z]-6,9,16-trimethyl-1,11-dihydro-2H,13H-1,17-(ethanediylidene)[1,4]oxazolo[4,3-m]dipyrrolo[3,2-f:3′,4′-i][1,4]oxazacyclopentadecine-3,8(5H,9H)-dione]",93,57,42,60,51,66,89,98,89,83,25,93,87,91,20,4.2,100
"Cc1cc2c([nH]1)/C=C1\C(=O)Nc3ccc(cc31)OCCOCCNC2=O [Ex. 129, [16a(17)Z]-2-methyl-6,7,9,10-tetrahydro-1H-12,14-(ethanediylidene)dipyrrolo[3,2-i:3′,4′-l][1,4,7]dioxazacyclopentadecine-4,16(5H,15H)-dione]",98,87,86,84,91,100,98,78,100,100,89,100,96,96,92,91,81
"Cc1cc2c([nH]1)/C=C1\C(=O)Nc3cc(Cl)c(cc31)OCCOCCN(C)C2=O [Ex. 131, [16a(17)Z]-19-chloro-2,5-dimethyl-6,7,9,10-tetrahydro-1H-12,14-(ethanediylidene)dipyrrolo[3,2-i:3′,4′-l][1,4,7]dioxazacyclopentadecine-4,16(5H,15H)-dione]",0.15,0,0.2,0,0,0.6,5.1,70,7.7,0,0,0,6.2,1.8,0,1.1,78
"Cc1cc2c([nH]1)/C=C1\C(=O)Nc3cc(Cl)c(cc31)OCCO[C@@H](C(=O)NC1CNC1)CN(C)C2=O [Ex. 133, [7R,16a(17)Z]-N-(azetidin-3-yl)-19-chloro-2,5-dimethyl-4,16-dioxo-4,5,6,7,9,10,15,16-octahydro-1H-12,14-(ethanediylidene)dipyrrolo[3,2-i:3′,4′-l][1,4,7]dioxazacyclopentadecine-7-carboxamide]",47,61,49,65,68,48,95,90,70,24,70,26,43,96,94,78,97
